What was measured:
Format in all cases: cell-based
HL-60 = test: CellTiter-Glo luminescent cell viability assay (ATP quantification), HL-60; conditions: acute promyelocytic leukemia cells, 72 h treatment, viable cells by ATP luminescence
Method: (§1) Influence of the test compounds on viability (proliferation) of cell lines used was investigated in concentration range 0-100 μmol·l^−1.
(§2) Suspension cell line HL-60 is a permanent in vitro culture of acute promyelocytic leukemia. HL-60 cell line was cultivated in RPMI 1640 medium (Sigma-Aldrich, see above) with addition of 2 mmol·l^−1 glutamine (Invitrogen, see above), 10% fetal bovine serum (FBS, Sigma-Aldrich, see above), 100 IU/ml peniciline, 100 μg/ml streptomycine (Sigma-Aldrich, see above). Passaging was performed 2-3× a week. Population doubling time of HL-60 cell line was 23 h under the cultivation conditions used.
(§3) In order to test the sensitivity of the cell lines towards the studied helquats, cytotoxity test for cell viability assessment based on ATP quantification in cell lysates was used (CellTiter-Glo® Luminescent Cell Viability Assay, Promega, cat. no. G7571). In this test, ATP in cell lysates is detected using luciferase reaction. Luminescence intensity correlates with the ATP level and thus with quantity of metabolically active (viable) cells. IC50 value serves as the output, that is the concentration of the test compound which leads to 50% reduction in number of viable cells as compared to control, untreated population. To this end, IC50 value reflects efficiency of the test compound with regard to the given cell line.
(§4) Cells in the exponential growth phase were seeded into a 96-well microtiter plate were plated at 3000 cells per well. Each well contained 90 μl of cell suspension. The next day, 10 μl of 10× concentrated test compound solutions were added. The effect of helquats was investigated in concentration range 1 to 100 μmol·l^−1 (e.g. 1; 2.5; 5; 7.5; 10; 15; 25; 50 and 100 μmol·l^−1). Apart from the section containing the concentration series of the test compound, each well contained 2 control columns, the first with pure medium (so called blank) and the second with cells in medium without the test compounds (control). Into wells containing controls and blanks, volume of solvent (water) equal to the volume of added compound solutions was added. After 72 h of incubation with the test compounds viability was determined according to the manufacturer's instructions. In short: microtiter well plate was left 30 min to reach the room temperature after it has been removed from the incubator. Then, into each well, 100 μl of the prepared detection agent was added. Next, the well plate was shaken for 2 min to complete the full lysis. Next, after the well had been left in the dark for 15 min, the luminescence was measured in each well using luminometer (Tecan Genios, Austria).
(§5) IC50 value represents concentration of the test compound, which leads to 50% reduction of viable cells (inhibition of cell growth) after 72 h of the treatment. Each helquat concentration was tested in triplicates in a IC50 quantification and at least 3 independent IC50 quantification experiments were performed. IC50 values over 100 μmol·l^−1 were obtained by extrapolation of data measured in concentration range 0-100 μmol·l^−1 for the given helquat.

CCRF-CEM = test: CellTiter-Glo luminescent cell viability assay (ATP quantification), CCRF-CEM; conditions: acute lymphoblastic leukemia cells, 72 h treatment, viable cells by ATP luminescence
Method: as §1
Suspension cell line CCRF-CEM is a permanent in vitro culture of acute lymphoblastic leukemia. CCRF-CEM cell line was cultivated in RPMI 1640 medium (Sigma-Aldrich, cat. no. R8758) with addition of 2 mmol·l^−1 glutamine (Invitrogen, cat. no. 35050-038), 10% fetal bovine serum (FBS, Sigma-Aldrich, cat. no. F9665), 100 IU/ml peniciline, 100 μg/ml streptomycine (Sigma-Aldrich, cat. no. P0781). Passaging was performed 2-3× a week. Population doubling time of CCRF-CEM cell line was 20 h under the cultivation conditions used.
as §3, §4, §5

MOLT-4 = test: CellTiter-Glo luminescent cell viability assay (ATP quantification), MOLT-4; conditions: acute lymfoblastic leukemia cells, 72 h treatment, viable cells by ATP luminescence
Method: as §1
as §2, with “line MOLT-4” for “line HL-60”, “acute lymfoblastic” for “acute promyelocytic”, “leukemia. Linie MOLT-4” for “leukemia. HL-60”, “2 mmol” for “2 mmol·l^−1”, “of […]” for “of HL-60”, “was 25” for “was 23”
as §3, §4, §5

NHDF-Ad = test: CellTiter-Glo luminescent cell viability assay (ATP quantification), NHDF-Ad normal cells; conditions: normal human dermal fibroblasts, 72 h treatment
Text: as §1
Normal human dermal fibroblasts were cultivated without antibiotics in basal medium for fibroblasts (ATCC/LGC Standards, cat. no. PCS-201-030) with added “Fibroblast Growth Kit-Low serum” (ATCC/LGC Standards, cat. no. PCS-201-041) containing 2% FBS, L-glutamine, hydrocortisone, ascorbic acid, rh FGF beta, rh insulin. When 90% confluency was reached the fibroblasts were washed with sterile PBS (5 ml) and dissociated by addition of 0.25% solution of trypsin/EDTA (2 ml; 2 min; 37° C.). After that 5 ml of cultivation medium for fibroblasts was added and the cells were centrifuged (180×g, 7 min), the cell pellet was resuspended, and transferred in the amount needed into a new cultivation bottle with fresh medium. The same cell release procedure was applied when the cells were to be used in experiments. The cells were used in experiments between the 3rd and the 15th passage after defreeezing. Population doubling time of NHDF-Ad cell line was 33 h under the cultivation conditions used.
as §3, §4, §5

LoVo = test: CellTiter-Glo luminescent cell viability assay (ATP quantification), LoVo; conditions: colorectal carcinoma cells, 72 h treatment, viable cells by ATP luminescence, class symbols
Method: as §1
Adherent cell line LoVo is a permanent in vitro culture derived from tissue of a patient with colorectal carcinoma. LoVo cell line was cultivated in DMEM medium (Sigma-Aldrich, cat. no. D8437) with addition of 2 mmol·l^−1 glutamine (Invitrogen, see above), 10% fetal bovine serum (FBS, Sigma-Aldrich, see above), 100 IU/ml peniciline, 100 μg/ml streptomycine (Sigma-Aldrich, see above). Passaging was performed twice a week. After washing of cells with sterile PBS, the cells were released by 0.25% trypsin/EDTA (Sigma-Aldrich, see above) at 37° C. for 2 minutes. The trypsin was inactivated by addition of 2 volumes of complete medium, cells were then centrifuged (250×g, 5 min), resuspended, and transferred in the amount needed into a new cultivation bottle with fresh medium. Population doubling time of LoVo cell line was 39 h under the cultivation conditions used.
as §3, §4, §5

[1] = viable cells by ATP luminescence, class symbols

| Structure (SMILES) | IC50 (HL-60) | IC50 (CCRF-CEM) | IC50 (MOLT-4) | IC50 (NHDF-Ad; [1]) | IC50 (LoVo) | IC50 (HL-60; Homo sapiens, HL-60) | IC50 (CCRF-CEM; Homo sapiens, CCRF-CEM) | IC50 (MOLT-4; Homo sapiens, MOLT-4) | IC50 (NHDF-Ad; Fibroblast, numeric bound, values over 100 obtained by extrapolation of data measured at 0-100 μmol·l−1) | IC50 (LoVo; Homo sapiens, LoVo) |
| --- | --- | --- | --- | --- | --- | --- | --- | --- | --- | --- |
| Cc1c(C)c2c(c3c1CC[n+]1ccc(/C=C/c4ccc(N(C)C)cc4)cc1-3)-c1c3ccccc3cc[n+]1CC2 [(M)-1, (M)-(E)-13-(4-(dimethylamino)styryl)-6,7-dimethyl-4,5,8,9-tetrahydroiso-quinolino[1,2-a]pyrido[1,2-k][2,9]phenanthroline-3,10-diium trifluoromethanesulfonate] | < 10 µM | < 10 µM | < 10 µM | 51 to 150 µM | 11 to 50 µM |  |  |  |  |  |
| COc1ccc(/C=C/c2cc[n+]3c(c2)-c2c(c(C)c(C)c4c2-c2c5ccccc5cc[n+]2CC4)CC3)cc1 [(M)-6, (M)-(E)-13-(4-methoxystyryl)-6,7-dimethyl-4,5,8,9-tetrahydroisoquinolino[1,2-a]pyrido[1,2-k][2,9]phenanthroline-3,10-diium trifluoromethanesulfonate] |  |  |  |  |  | 11 to 50 µM | 11 to 50 µM | 11 to 50 µM | > 150 µM | 11 to 50 µM |
| COc1ccc2cc(/C=C/c3cc[n+]4c(c3)-c3c(c(C)c(C)c5c3-c3c6ccccc6cc[n+]3CC5)CC4)ccc2c1 [(M)-7, (M)-(E)-13-(2-(6-methoxynaphthalene-2-yl)vinyl)-6,7-dimethyl-4,5,8,9-tetrahydroisoquinolino[1,2-a]pyrido[1,2-k][2,9]phenanthroline-3,10-diium trifluoromethanesulfonate] | < 10 µM | < 10 µM | < 10 µM | 51 to 150 µM | 11 to 50 µM |  |  |  |  |  |

Source: patent US9340543B2, “Helquat derivatives, preparation thereof, and use thereof as medicaments” (USTAV ORGANICKE CHEMIE A BIOCHEMIE AKADEMIE VED CR, V.V.I., priority 2013, dated 2016)
